# From paper PMC11487561 (ACS Chemical Neuroscience, 2024)
# Columns and labels:
# [1] = test system: GABAA, Flunitrazepam, Central; assay: Lead Profiling Screen – Eurofins Panlabs; type: binding, rat
# Muscarinic M1 = Muscarinic M1 (Homo sapiens, UniProt P11229); assay: Lead Profiling Screen – Eurofins Panlabs; type: binding; settings: read-out: % inh at 10 μM
# Opiate δ1 (OP1, DOP) = Opiate δ1 (OP1, DOP) (Homo sapiens, UniProt P41143); assay: Lead Profiling Screen – Eurofins Panlabs; type: binding; settings: read-out: % inh at 10 μM
# Sequence of Opiate δ1 (OP1, DOP) (P41143 whole entry): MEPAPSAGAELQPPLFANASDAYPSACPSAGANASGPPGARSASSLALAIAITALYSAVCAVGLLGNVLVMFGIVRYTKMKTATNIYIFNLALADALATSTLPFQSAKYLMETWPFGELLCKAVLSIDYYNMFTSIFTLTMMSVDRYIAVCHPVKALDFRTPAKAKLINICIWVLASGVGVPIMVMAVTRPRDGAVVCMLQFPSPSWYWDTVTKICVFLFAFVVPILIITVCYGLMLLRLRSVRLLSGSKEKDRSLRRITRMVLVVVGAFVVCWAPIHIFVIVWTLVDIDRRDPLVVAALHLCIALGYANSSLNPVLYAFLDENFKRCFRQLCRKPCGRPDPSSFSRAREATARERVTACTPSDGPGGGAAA
# [2] = Intrinsic clearance in human liver microsomes; type: in vitro ADME
# Procedure: Intrinsic Clearance in Rat and Human Liver Microsomes
# The in vitro intrinsic clearance (CL int) was investigated in commercially obtained hepatic microsomes from rat and human donors using the substrate depletion (i.e., loss-of-parent vs. time, or t 1/2 method) approach with analyte detection via liquid chromatography-tandem mass spectrometry (LC-MS/MS). For each species, mean %parent remaining values at each time point were calculated from replicates raw data (analyte:IS peak area ratios) and used to determine in vitro t 1/2 and CLint.
# Experiments were carried out using a robot-assisted (TECAN model Evo 200). Compound was incubated (1 µM final concentration) in buffer (100 mM potassium phosphate pH 7.4 with 3 mM MgCl2) containing hepatic microsomes (0.5 mg/mL final concentration) from multiple species, discretely, at 37 °C under constant orbital shaking. After 5 minutes (pre-incubation), reactions were initiated by addition of nicotinamide adenine dinucleotide phosphate (NADPH, 1 mM final concentration). At selected time intervals (0, 3, 7, 15, 25, and 45 minutes) post-addition of NADPH, aliquots (50 µL) were taken and placed into a 96-shallow-well plate containing ice cold acetonitrile (150 µL) with carbamazepine (IS, 50 nM). The plates were then centrifuged (3000 rcf at 4 °C) for 10 minutes. The supernatants were transferred to a new 96-shallow-well daughter plate and diluted (1:1 v/v) with water (Milli-Q filtered). The plates were then sealed in preparation for LC-MS/MS analysis (see below).
# Raw LC-MS/MS peak area data generated from the assay samples were used to construct natural log-transformed %parent remaining vs. time plots (using t = 0 minute post-NADPH addition sample data as starting point set to 100%). In vitro compound half-life (t 1/2) values were obtained using the following […]
# k is the slope from linear regression analysis of the natural log-transformed data (using means from Where all replicates at each time point). Resulting t 1/2 values were then used to calculate hepatic CLint values according to the following equation and with the use of species-specific scale-up factors for liver weight (grams) per total body weight (kg): […]
# CLint = in vitro t1/2 x 0.5 mg microsomes x 1 gram liver x kg body wt aScale-up factors used are 45 (rat) and 20 (human).2
# Predicted hepatic clearance (CLhep) was calculated using the following equation: […]
# Qh represents hepatic blood flow (mL/min/kg): 21 for human, 70 for rat, and 90 for mouse.
# Prepared samples were injected (10 µL each) onto an AB Sciex Triple Quad 4500 mass spectrometer system with an Agilent 1260 Infinity II pump and autosampler. Mass spectrometer conditions are described in Table S1. Quantitation of compounds was performed via AB Sciex Multiquant software using the raw analyte:IS peak area ratios. The typical detection range was 0.5 ng/mL to ≥ 5,000 ng/mL utilizing a quadratic equation regression with 1/x2 weighting. […]
# Table S1. LC-MS/MS Conditions*
# Mobile phase A 0.5% Formic Acid in Water
# Mobile phase B 0.5% Formic Acid in Acetonitrile
# Gradient Time % Mobile Phase B
# Purinergic P2Y = assay: Lead Profiling Screen – Eurofins Panlabs; type: binding, rat
# hNav1.5 (Tonic) = biological target: T1, hNav1.5 (Tonic) (Homo sapiens, UniProt Q14524); assay: Cardiac Ion Channel Panel – Charles River (QPatch HT patch clamp); type: cell-based
# T1 construct: Charles River Laboratories
# Procedure: (§1) page 17: Table S3. Cardiac Ion Channel Panel - Charles River Laboratories for VU6016235 Ion Channel Concentration Mean % Standard Standard n (μM) Inhibition Deviation Error hCav1.2 10 13.9 8.9 5.1 3 hCav3.2 10 6.7 2.7 1.4 4 hHCN2 10 2.6 1.9 1.1 3 hERG 10 10.9 0.9 0.4 4 hKv1.5 10 1.3 1.8 0.9 4 […] 10 4.1 5.6 2.8 4 hKv1.3 10 9 2.9 1.7 3 hNav1.5 (Tonic) 10 5.8 0.6 0.4 3 […] (Phasic) The in vitro effects of VU6016235 were evaluated at room temperature using the QPatch HT® (Sophion Bioscience A/S, Denmark), an automatic parallel patch clamp system. VU6016235 was evaluated at a concentration of 10 μM and tested in at least 3 cells (n ≥ 3). The duration of exposure to each test article concentration was at least 5 minutes. Rat Amphetamine-Induced Hyperlocomotion (AHL) Protocol Male Harlan Sprague Dawley rats with a mean body weight of 240 g (range 221-264 g) were tested in SmartFrame Open Field locomotor activity test chambers to automatically record locomotor activity. All […] for an additional 30 min with either vehicle or a dose of VU6016235 or the comparator M 4 PAM […] Next, rats were injected subcutaneously with vehicle or a dose of 0.75 mg/kg amphetamine and then monitored for an additional 60 min. Changes in locomotor activity were recorded for a total of 120 min. Locomotor data were expressed as the number of photobeam breaks/5 min intervals across the 120-min test session or as the total ambulation, calculated as sum of photobeam beam breaks from the time of amphetamine administration (60 min) until the end of the study (120 min). Time course data were analyzed by two-way ANOVA with main effects of treatment and time; changes in total ambulation were analyzed by one-way ANOVA followed by Dunnett's post hoc test (GraphPad Prism 7 [GraphPad Software, San Diego, CA]). For all tests, α ≤ 0.05 was considered to represent statistical significance. Finally, percent reversal data were calculated in Microsoft Excel using the following formula: Percent Reversal = 100 - {[(total ambulation in individual animal from t = 60 to t = 120) / (mean total ambulation S17
# hHCN2 = biological target: T2, hHCN2 (Homo sapiens, UniProt Q9UL51); assay: as above; type: cell-based
# T2 construct: Charles River Laboratories
# T2 sequence (Q9UL51 whole entry): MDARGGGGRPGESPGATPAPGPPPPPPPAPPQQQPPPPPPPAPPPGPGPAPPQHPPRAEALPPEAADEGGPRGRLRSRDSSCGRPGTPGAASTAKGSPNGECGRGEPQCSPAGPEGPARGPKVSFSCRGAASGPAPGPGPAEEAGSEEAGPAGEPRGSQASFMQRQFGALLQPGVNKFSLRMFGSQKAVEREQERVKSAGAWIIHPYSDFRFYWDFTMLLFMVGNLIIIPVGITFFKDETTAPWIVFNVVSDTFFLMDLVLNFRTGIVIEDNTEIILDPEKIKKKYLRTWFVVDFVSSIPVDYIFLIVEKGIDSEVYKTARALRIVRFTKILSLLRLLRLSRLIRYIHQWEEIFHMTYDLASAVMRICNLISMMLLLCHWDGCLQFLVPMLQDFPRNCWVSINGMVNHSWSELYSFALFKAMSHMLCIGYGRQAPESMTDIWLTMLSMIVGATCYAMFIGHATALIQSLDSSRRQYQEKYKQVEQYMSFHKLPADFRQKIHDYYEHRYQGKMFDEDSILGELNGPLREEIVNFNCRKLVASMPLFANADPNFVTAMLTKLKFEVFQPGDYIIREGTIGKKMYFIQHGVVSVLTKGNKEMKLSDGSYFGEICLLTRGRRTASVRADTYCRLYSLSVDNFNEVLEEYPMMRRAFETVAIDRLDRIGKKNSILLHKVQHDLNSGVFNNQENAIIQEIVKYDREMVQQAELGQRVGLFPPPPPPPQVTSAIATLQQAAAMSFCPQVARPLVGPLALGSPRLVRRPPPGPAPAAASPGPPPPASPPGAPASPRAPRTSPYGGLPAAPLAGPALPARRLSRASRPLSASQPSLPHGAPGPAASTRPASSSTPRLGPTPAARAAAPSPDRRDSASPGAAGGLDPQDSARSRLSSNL
# Procedure: as §1
# hCav3.2 = biological target: T3, hCav3.2 (Homo sapiens, UniProt O95180); assay: as above; type: cell-based
# T3 construct: Charles River Laboratories
# Procedure: as §1
# hKvLQT1/minK = biological target: T4, hKvLQT1/minK (Homo sapiens, UniProt P51787); assay: as above; type: cell-based
# T4 construct: Charles River Laboratories
# Procedure: as §1
# hKv1.5 = biological target: T5, hKv1.5 (Homo sapiens, UniProt P22460); assay: as above; type: cell-based
# T5 construct: Charles River Laboratories
# T5 sequence (P22460 whole entry): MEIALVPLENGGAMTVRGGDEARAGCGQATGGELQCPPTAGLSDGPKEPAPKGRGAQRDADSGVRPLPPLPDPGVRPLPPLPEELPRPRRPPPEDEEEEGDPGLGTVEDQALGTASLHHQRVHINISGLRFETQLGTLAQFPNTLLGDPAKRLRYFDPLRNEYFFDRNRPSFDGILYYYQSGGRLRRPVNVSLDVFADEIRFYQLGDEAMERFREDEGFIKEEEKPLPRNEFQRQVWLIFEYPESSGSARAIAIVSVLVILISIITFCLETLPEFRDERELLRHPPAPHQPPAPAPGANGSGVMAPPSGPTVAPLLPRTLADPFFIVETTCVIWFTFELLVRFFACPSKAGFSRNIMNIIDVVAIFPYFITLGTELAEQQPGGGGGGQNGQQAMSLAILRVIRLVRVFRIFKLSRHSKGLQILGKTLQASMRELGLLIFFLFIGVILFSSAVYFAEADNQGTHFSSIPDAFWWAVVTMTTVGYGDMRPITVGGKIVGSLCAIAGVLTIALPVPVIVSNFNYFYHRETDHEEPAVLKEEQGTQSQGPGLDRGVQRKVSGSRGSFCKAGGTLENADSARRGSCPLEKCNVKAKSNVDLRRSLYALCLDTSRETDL
# Procedure: as §1
# Neuropeptide Y Y1 = Neuropeptide Y Y1 (Homo sapiens, UniProt P25929); assay: Lead Profiling Screen – Eurofins Panlabs; type: binding; settings: read-out: % inh at 10 μM
# Sequence of Neuropeptide Y Y1 (P25929 whole entry): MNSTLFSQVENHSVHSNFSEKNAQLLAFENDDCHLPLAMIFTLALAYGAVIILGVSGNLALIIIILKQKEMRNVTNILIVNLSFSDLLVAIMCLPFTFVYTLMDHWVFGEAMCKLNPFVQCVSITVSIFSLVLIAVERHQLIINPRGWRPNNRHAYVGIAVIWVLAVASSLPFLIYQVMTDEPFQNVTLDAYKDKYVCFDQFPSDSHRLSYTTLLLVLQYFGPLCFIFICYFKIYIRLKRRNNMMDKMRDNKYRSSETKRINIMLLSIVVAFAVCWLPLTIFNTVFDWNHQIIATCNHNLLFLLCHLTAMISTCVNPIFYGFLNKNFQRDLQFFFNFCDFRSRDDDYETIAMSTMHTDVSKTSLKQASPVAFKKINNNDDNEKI
# Glucocorticoid = Glucocorticoid (Homo sapiens, UniProt P04150); assay: Lead Profiling Screen – Eurofins Panlabs; type: binding; settings: read-out: % inh at 10 μM
# Sequence of Glucocorticoid (P04150 whole entry): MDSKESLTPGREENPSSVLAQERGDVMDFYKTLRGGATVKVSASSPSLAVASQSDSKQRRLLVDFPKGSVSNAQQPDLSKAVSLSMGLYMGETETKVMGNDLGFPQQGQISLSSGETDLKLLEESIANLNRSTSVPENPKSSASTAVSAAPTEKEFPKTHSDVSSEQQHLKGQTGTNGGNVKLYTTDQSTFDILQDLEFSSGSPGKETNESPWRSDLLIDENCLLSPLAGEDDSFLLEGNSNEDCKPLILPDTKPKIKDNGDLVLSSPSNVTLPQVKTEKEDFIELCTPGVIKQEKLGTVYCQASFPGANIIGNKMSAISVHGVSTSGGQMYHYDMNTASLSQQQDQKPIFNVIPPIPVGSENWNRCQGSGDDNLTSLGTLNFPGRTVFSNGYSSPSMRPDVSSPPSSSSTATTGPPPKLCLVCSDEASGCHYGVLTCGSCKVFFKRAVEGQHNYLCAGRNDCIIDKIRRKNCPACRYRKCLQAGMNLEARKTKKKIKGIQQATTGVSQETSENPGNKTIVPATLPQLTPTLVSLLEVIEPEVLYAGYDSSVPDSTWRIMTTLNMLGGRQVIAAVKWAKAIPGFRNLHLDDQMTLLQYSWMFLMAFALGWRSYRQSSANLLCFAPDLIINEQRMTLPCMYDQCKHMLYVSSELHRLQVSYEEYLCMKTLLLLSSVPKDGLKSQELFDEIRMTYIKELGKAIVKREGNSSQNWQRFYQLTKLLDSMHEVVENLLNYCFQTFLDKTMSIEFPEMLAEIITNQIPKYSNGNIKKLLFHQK
# Dopamine D1 = biological target: T6, Dopamine D1 (Homo sapiens, UniProt P21728); assay: Lead Profiling Screen – Eurofins Panlabs; type: binding; settings: read-out: % inh at 10 μM
# T6 construct: Eurofins Panlabs (contract screen)
# T6 sequence (P21728 whole entry): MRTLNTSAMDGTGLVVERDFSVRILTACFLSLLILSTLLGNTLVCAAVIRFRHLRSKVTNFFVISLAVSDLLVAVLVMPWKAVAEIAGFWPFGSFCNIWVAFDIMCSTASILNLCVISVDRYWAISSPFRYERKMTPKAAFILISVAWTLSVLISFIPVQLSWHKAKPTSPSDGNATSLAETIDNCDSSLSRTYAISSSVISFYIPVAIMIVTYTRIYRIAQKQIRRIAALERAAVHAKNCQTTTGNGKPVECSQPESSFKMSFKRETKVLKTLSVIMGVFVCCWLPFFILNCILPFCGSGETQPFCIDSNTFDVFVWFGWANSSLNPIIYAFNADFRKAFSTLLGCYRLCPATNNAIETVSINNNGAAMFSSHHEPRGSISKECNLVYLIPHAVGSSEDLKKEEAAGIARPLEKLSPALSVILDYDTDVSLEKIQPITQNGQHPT
# Sequence of Muscarinic M1 (P11229 whole entry): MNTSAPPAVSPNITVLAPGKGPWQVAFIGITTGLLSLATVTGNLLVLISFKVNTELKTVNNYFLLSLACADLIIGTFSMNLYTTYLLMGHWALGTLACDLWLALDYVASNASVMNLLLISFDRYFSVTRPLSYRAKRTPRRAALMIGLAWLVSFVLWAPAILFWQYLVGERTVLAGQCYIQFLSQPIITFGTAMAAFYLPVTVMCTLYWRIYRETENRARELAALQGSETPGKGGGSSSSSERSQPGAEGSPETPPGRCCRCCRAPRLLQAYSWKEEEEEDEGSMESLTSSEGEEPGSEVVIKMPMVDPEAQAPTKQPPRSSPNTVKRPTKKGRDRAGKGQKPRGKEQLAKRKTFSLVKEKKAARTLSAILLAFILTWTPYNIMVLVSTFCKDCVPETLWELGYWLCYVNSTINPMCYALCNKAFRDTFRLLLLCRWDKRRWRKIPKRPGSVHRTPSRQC
smiles,measurement,setting,value
Cc1nc(C)c2c(n1)sc1c(NCc3ccc(C(C)(C)O)cc3)nccc12 [22g],% inh at 10 μM,[1],13%
same,inhibition at 10 µM,Muscarinic M1,0%
same,inhibition at 10 µM,"Opiate δ1 (OP1, DOP)",-2%
same,CLint scaled at 1 µM,"[2]; pH 7.4, human liver microsomes",26 mL/min/kg
same,"CLhep, human",[2]; predicted hepatic clearance from microsomal CLint,12 mL/min/kg
same,% inh at 10 μM,Purinergic P2Y,9%
same,inhibition at 10 µM,hNav1.5 (Tonic),5.8%
same,inhibition at 10 µM,hHCN2,2.6%
same,inhibition at 10 µM,hCav3.2,6.7%
same,inhibition at 10 µM,hKvLQT1/minK,4.1%
same,inhibition at 10 µM,hKv1.5,1.3%
same,inhibition at 10 µM,Neuropeptide Y Y1,-1%
same,inhibition at 10 µM,Glucocorticoid,-10%
same,inhibition at 10 µM,Dopamine D1,21%
